Here are results for three molecules from patent US20190211020A1 (Agency for Science, Technology and Research, priority 2012, published 2019).

The structures appear in SMILES notation. “Also recorded” adds a separate entry of the source. Like-named read-outs stand apart in the source and are kept apart here.

Data set [1] deals with eIF4E Ser209 phosphorylation in Hela cells. The data set is described as follows: MNK cell-based assay (AlphaScreen SureFire, eIF4E Ser209 phosphorylation). Particulars: Homo sapiens; eIF4E Ser209 phosphorylation, Hela cells, 2 hours; read-out: IC50 Hela. In short, it runs like this:
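Hela cells (30,000/well) exposed to test compound in serum-free medium for 2 h at 37 °C, then lysed. Phospho-Ser209 eIF4E quantified by AlphaScreen SureFire; IC50 obtained by non-linear regression of signal versus log compound concentration.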
Background: In Alpha technology, singlet oxygen from a donor bead excites a nearby acceptor bead.

Data set [2] deals with eIF4E phosphorylation in K562 cells. The data set is described as follows: Western blot of eIF4E phosphorylation in K562 cells. Conditions: various concentrations, 24 h. Type of data set: cell-based. The procedure:
(§1) K562 cell line was obtained from the ATCC, and grown in RPMI supplemented with 10% FCS, L-glutamine, and penicillin/streptomycin.
(§2) Exponentially growing cells were plated at 2×10^5 cells/ml, and whole cell lysate processed for western blot analysis using antibodies recognizing eIF4E, phospho-eIF4E (Cell signaling Technology),
(A western blot detects proteins with antibodies after separation by electrophoresis.)

Data set [3] concerns P116.c139 (acute T cell leukemia). The data set is described as follows: Cell cytotoxicity assay (CellTiter-Glo), P116.c139. Particulars: T-cell, cell viability. Type of data set: cell-based. As to the method:
(§3) Cancer cell lines, MV-4-11 (leukemia), P116.c139 (acute T cell leukemia) and D1.1 (acute T cell leukemia), were purchased from ATCC and cultured according to supplier's recommendations. K562 cells (myelogenous leukemia) over-expressing eIF4E, were also used for the cytotoxicity assay. For cells treated for 48 hours, 5000 cells were seeded in 70 μl of growth medium in black, flat-bottom 96-well plate. For cells treated for six days, 1000 cells were seeded in 70 μl of growth medium in black, flat-bottom 96-well plate. […] 50 μl of the diluted compounds was added to the cells and incubated at 37° C. in 5% CO2. After 48 hours or six days treatment, cell viability was determined by CellTiter-Glo Luminescent Cell Viability Assay (Promega, Madison, Wis.). 120 μl of the reagent was added to the cells and luminescence was measured using Tecan Safire Reader. Data was analysed with Graphpad Prism software and the figures represented indicate the half maximal inhibitory concentration (IC50). Error bars denote standard deviation (SD).

The test system of a further data set is MV-4-11 (leukemia). As to the kind of experiment: Cell cytotoxicity assay (CellTiter-Glo), MV-4-11. Type of data set: cell-based. Conditions: Homo sapiens, cell viability. As to the method:
as §3

Data set [4] relates to nuclear active beta-catenin in BC-CML primary cells. As to the kind of experiment: Immunofluorescence of nuclear active beta-catenin in BC-CML primary cells. Type of data set: cell-based, human. The text has this: Cord Blood (CB) samples were purchased from the Singapore Cord Blood bank. CML samples were the Singapore General Hospital after signed informed consent under local IRB-approved procedures. MNCs were obtained using Ficoll separation, and CD34^+ cells selected by immunomagnetic beads (Miltenyi Biotech, Germany).
Cells (1×10^5) were cytospun onto glass slides, fixed with 4% paraformaldehye, and stained with mouse monoclonal antibodies against activated β-catenin (clone 8E7, Millipore, UK), or rabbit monoclonal antibodies against phospho-eIF4E S209 (EP2151Y, Abcam, UK). Slides were then stained with either PE-conjugated anti-mouse or FITC-conjugated anti-rabbit antibodies. Images were obtained with the use of a fluorescence microscope (Olympus IX71S1F3) at 40× magnification.

For another data set, the target named is T1, BCR-ABL (Homo sapiens, UniProt P00519).
T1 construct: host or cells: K562; the other entry of the earlier key: BCR (P11274, Breakpoint cluster region protein)
As to the kind of experiment: Western blot of CrK1 phosphorylation (BCR-ABL activity) in K562 cells. Type of data set: cell-based. As to the method:
as §1, §2

For data set [5], the system named is K562 cells (myelogenous leukemia) over-expressing eIF4E. As to the kind of experiment: Cell cytotoxicity assay (CellTiter-Glo), K562. Type of data set: cell-based. Particulars: for IC50: Homo sapiens, cell viability. The procedure:
as §3
(In general: In ATP-based viability assays light output follows the ATP content of the culture.)

Data set [6] has as its system MV-4-11, P116.c139 and D1.1 cell lines. The data set is described as follows: Cell cytotoxicity assay, the three test cell lines taken together. Type of data set: cell-based. The procedure:
as §3

For data set [7], the system named is D1.1 (acute T cell leukemia). As to the kind of experiment: Cell cytotoxicity assay (CellTiter-Glo), D1.1. Conditions: T-cell, cell viability. Type of data set: cell-based. The procedure:
as §3

Data set [8] relates to eIF4E phosphorylation in cerebellar neurons in brain sections. As to the kind of experiment: Immunoblot of phospho-eIF4E in mouse cerebellar brain slices. Particulars: 40 μM CGP57380 or 50 nM ETC7168 for 45 mins. The procedure:
For biochemical analyses mice were sacrificed by CO2 inhalation, the cerebellum dissected and rapidly placed in a vibratome chamber and sectioned at 300 μm in cold oxygenated aCSF (in mM: 125 NaCl, 2.5 KCl, 1 MgCl2, 2 CaCl2, 1.25 NaH2PO4, 20 Glucose, 26 NaHCO3, 95% O2/5% CO2). Slices obtained were maintained at 33° C. in oxygenated aCSF and treated with 40 μM CGP57380 or 50 nM ETC7168 for 45 mins and tissues were subsequently snap frozen in liquid nitrogen. Tissues were lysed in 25 mM Tris-HCl, 150 mM NaCl, 1% Triton, 0.2% SDS, 5 mM EDTA, 2 mM DTT, 1 mM NaF, 1 mM Na3VO4 containing protease inhibitor cocktail. The soluble fractions were analyzed by immunoblotting with primary antibodies for 24 hrs at 4° C. followed by detection with secondary antibodies for enhanced chemoluminescent detection. […] Behavioral testing was performed using a well-accepted test for autism that consists of quantitative analysis of ultrasonic vocalizations emitted by male mice exposed to females in estrous^75. […] Prior to testing, the estrous cycle of each female mouse was assessed and only females in estrous were kept for testing. […] Subsequently a female in estrous was introduced in the arena, and ultrasonic vocalizations were recorded for 3 min using the Avisoft system (Avisoft Bioacoustics) with a frequency bandwidth of 30 kHz to 100 kHz. The number and length of ultrasonic vocalizations were quantified. […]

Another data set has as its system BC CD34+ CML cells. Particulars: background; cited from earlier work.
Data set [9] deals with eIF4G levels in brain sections from Nlgn3 knock-out mice. The data set is described as follows: Immunoblot of eIF4G in brain slices of Nlgn3 knock-out mice. Also on record: species or system mouse. Conditions: 40 μM CGP57380 or 50 nM ETC7168. As to the method:
For biochemical analyses mice were sacrificed by CO2 inhalation, the cerebellum dissected and rapidly placed in a vibratome chamber and sectioned at 300 μm in cold oxygenated aCSF (in mM: 125 NaCl, 2.5 KCl, 1 MgCl2, 2 CaCl2, 1.25 NaH2PO4, 20 Glucose, 26 NaHCO3, 95% O2/5% CO2). Slices obtained were maintained at 33° C. in oxygenated aCSF and treated with 40 μM CGP57380 or 50 nM ETC7168 for 45 mins and tissues were subsequently snap frozen in liquid nitrogen. Tissues were lysed in 25 mM Tris-HCl, 150 mM NaCl, 1% Triton, 0.2% SDS, 5 mM EDTA, 2 mM DTT, 1 mM NaF, 1 mM Na3VO4 containing protease inhibitor cocktail. The soluble fractions were analyzed by immunoblotting with primary antibodies for 24 hrs at 4° C. followed by detection with secondary antibodies for enhanced chemoluminescent detection. Impact of MNK inhibitors on autism-related behavior was tested in a knock-out mouse model for autism. Nlgn3 knock-out mouse model a human mutation identified in patients with autism^73-74. Compounds were applied in DMSO using intraperitoneal injection in adult male mice (2-4 months of age). Two injections were performed, the first 30 h and a second one 5 h before testing. Behavioral testing was performed using a well-accepted test for autism that consists of quantitative analysis of ultrasonic vocalizations emitted by male mice exposed to females in estrous^75. The apparatus consisted of an arena (40 cm×20 cm) surrounded by 30-cm-high walls made of grey plastic and equipped with a microphone and a video camera. Prior to testing, the estrous cycle of each female mouse was assessed and only females in estrous were kept for testing. Male mice were acclimatized for 3 min in the chamber. Subsequently a female in estrous was introduced in the arena, and ultrasonic vocalizations were recorded for 3 min using the Avisoft system (Avisoft Bioacoustics) with a frequency bandwidth of 30 kHz to 100 kHz. The number and length of ultrasonic vocalizations were quantified. All animal experiments were approved by the cantonal veterinary office Basel-Stadt, Switzerland.

In a further data set the test system is normal CD34+ cells. Conditions: background; cited from earlier work.
In data set [10] the test system is patient-derived BC cells in NSG mice. Particulars: 40 mg/kg/d CGP or 5 mg/kg/d dasatinib for three weeks; read at 16 weeks; cited from earlier work.
For data set [11], the system named is normal cord blood CD34+ cells. Particulars: background; cited from earlier work.
Data set [12] concerns active nuclear beta-catenin in BC GMPs. Conditions: background; cited from earlier work.
Data set [13] concerns eIF4E phosphorylation in BC GMPs. Conditions: background; cited from earlier work.
For data set [14], the system named is TNF production by macrophage. Conditions: stimulation with TLR agonists; background; cited from earlier work.
Data set [15] relates to CD34+BC cells (including those carrying T315I mutation). Particulars: background; cited from earlier work.
Data set [16] has as its system beta-catenin transcriptional activity. Particulars: background; cited from earlier work.

T1 sequence (P00519 with tags, fused parts or gaps): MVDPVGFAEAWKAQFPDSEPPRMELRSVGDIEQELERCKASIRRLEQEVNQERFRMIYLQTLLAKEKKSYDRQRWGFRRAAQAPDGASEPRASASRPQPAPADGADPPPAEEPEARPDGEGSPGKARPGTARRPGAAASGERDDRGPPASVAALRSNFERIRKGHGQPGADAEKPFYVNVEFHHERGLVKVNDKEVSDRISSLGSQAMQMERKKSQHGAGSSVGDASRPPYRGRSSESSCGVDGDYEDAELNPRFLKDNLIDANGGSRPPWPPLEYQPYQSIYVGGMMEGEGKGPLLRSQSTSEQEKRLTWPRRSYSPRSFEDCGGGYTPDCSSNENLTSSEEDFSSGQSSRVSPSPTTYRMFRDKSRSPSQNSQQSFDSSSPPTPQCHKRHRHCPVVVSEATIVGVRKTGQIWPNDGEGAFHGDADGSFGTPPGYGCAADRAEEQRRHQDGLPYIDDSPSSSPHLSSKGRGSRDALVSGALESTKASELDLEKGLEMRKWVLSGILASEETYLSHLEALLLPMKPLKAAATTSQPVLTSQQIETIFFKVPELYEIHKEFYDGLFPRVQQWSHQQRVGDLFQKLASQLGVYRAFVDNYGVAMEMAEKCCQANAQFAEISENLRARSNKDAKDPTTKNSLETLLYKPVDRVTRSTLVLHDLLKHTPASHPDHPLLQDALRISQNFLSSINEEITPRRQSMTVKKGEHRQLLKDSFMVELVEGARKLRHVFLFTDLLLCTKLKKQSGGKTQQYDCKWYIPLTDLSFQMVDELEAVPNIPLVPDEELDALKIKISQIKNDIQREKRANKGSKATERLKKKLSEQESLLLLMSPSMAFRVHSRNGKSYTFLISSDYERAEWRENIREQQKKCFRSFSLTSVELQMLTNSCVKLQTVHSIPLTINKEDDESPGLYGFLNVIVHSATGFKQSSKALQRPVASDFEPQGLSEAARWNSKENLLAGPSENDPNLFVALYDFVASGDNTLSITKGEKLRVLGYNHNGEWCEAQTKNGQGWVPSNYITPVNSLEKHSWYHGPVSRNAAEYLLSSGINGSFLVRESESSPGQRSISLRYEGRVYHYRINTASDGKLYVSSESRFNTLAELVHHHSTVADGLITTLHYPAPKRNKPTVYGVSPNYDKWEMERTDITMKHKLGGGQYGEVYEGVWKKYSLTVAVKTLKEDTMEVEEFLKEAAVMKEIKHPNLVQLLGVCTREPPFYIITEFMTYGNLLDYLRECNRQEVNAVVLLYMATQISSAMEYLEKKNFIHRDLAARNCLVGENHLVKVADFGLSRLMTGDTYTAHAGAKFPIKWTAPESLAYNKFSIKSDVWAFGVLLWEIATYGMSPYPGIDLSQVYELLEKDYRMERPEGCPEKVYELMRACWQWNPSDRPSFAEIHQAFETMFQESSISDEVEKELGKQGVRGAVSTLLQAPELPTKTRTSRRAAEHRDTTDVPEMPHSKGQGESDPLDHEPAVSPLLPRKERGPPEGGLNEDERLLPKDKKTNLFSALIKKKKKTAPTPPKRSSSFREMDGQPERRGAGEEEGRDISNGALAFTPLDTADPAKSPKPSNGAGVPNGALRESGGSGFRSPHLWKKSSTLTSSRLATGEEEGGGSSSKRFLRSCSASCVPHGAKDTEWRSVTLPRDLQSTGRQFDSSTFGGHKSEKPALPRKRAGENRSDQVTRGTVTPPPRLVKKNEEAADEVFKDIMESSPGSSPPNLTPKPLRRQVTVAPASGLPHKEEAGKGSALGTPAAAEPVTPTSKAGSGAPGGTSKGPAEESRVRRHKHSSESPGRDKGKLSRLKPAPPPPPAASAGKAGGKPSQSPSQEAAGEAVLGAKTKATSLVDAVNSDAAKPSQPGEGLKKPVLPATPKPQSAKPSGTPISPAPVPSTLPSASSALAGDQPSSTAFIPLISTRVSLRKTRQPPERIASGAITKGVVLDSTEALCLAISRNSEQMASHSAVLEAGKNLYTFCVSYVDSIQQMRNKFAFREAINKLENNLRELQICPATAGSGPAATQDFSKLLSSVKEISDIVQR

In the case of `CN1CCN(C(=O)c2ccc(-c3ccn4ncc(-c5ccc(C#N)cc5)c4n3)cc2)CC1` [Example 176, 4-(5-(4-(4-methylpiperazine-1-carbonyl)phenyl)pyrazolo[1,5-a]pyrimidin-3-yl)benzonitrile], the IC50 (commonly the concentration at which inhibition is half-maximal) in data set [1] was less than 1000 nM; in data set [3] (144 h, 6 days, read-out: IC50 after 6 days of treatment, P116.c139), 100 nM; in [3] (48 hours, read-out: IC50 after 48 hours of treatment, P116.c139), 400 nM; with MV-4-11 (leukemia) (MV4-11, 144 h, 6 days, read-out: IC50 after 6 days of treatment, MV-4-11) it was 400 nM; with MV-4-11 (leukemia) (MV4-11, 48 hours, read-out: IC50 after 48 hours of treatment, MV-4-11), 1000 nM; in data set [5] (K562, 144 h, 6 days, read-out: IC50 after 6 days of treatment, K562) it was 3400 nM. Also, the IC50 in [5] (K562, 48 hours, read-out: IC50 after 48 hours of treatment, K562) is 14200 nM; in [6] (Homo sapiens, MV4-11, regardless of the treatment duration (48 hours or 6 days)) it was not above 1000 nM; in data set [7] (144 h, 6 days, read-out: IC50 after 6 days of treatment, D1.1), 800 nM; in data set [7] (48 hours, read-out: IC50 after 48 hours of treatment, D1.1), 1000 nM. Besides, the “eIF4E phosphorylation in K562 (BC-CML cell line), Western blot” value in [2] is “prevent eIF4E phosphorylation; also recorded: decrease in eIF4E phosphorylation”. Further, the “nuclear active beta-catenin in BC-CML primary cells, immunofluorescence” value in [4] is “decrease in nuclear beta-catenin accumulation”. The “BCR-ABL activity (phosphorylation of CrK1) in K562 cells” value on BCR-ABL is recorded as “decrease in BCR-ABL activity”. In addition, the “change of IC50 when treatment duration was extended from 48 hours to 6 days, K562” value in data set [5] (K562 cells over-expressing eIF4E) is “reduced by more than half”. The “relative cytotoxicity amongst the four compounds” value in data set [6] is “most cytotoxic”.

Regarding `Nc1ncnc2n[nH]c(Nc3ccc(F)cc3)c12` [CGP57380], the “eIF4E phosphorylation in cerebellar brain sections” value in [8] is “inhibit eIF4E phosphorylation”. In the data set with BC CD34+ CML cells, the “ability of BC CD34+ CML cells to engraft NSG mice after in vitro treatment” value is given as “retarded their ability to engraft NSG mice”. Also, the “eIF4G levels in brain sections from Nlgn3 knock-out mice” value in data set [9] was “elevation in eIF4G levels; also recorded: elevated eIF4G levels”. Moreover, in the data set with normal CD34+ cells, the “ability of normal CD34+ cells to serially replate” value is “not”. Further, in data set [10], the “serial transplantation of BC cells in NSG mice after in vivo treatment” value is given as “prevented BC cells from serially transplanting NSG mice”. Besides, in [11], the “ability of normal cord blood CD34+ cells to engraft NSG mice after in vitro treatment” value is given as “not”. In addition, the “accumulation of active nuclear beta-catenin in BC GMPs” value in [12] is “prevents accumulation of active nuclear beta-catenin”. Also, in data set [13], the “eIF4E phosphorylation in BC GMPs” value is on record as “inhibited eIF4E phosphorylation”. In data set [14], the “TNF production / release by macrophage” value is “inhibited; also recorded: inhibits the release of TNF alpha”. For the same molecule, in [15], the “ability of CD34+ BC cells to serially replate for more than 8 weeks in methylcellulose” value was “impaired the ability”.

Consider `CC[n+]1c(/C=C/N(C)c2ccccc2)n(-c2ccccc2)c2ccc(-c3nc4ccccc4s3)cc21.[I-]` [AKT inhibitor IV], for which, in data set [16], the “eIF4E-mediated increases in beta-catenin transcriptional activity” value is given as “prevented eIF4E-mediated increases in beta-catenin transcriptional activity”.
